Results published in patent US8609669B2, “Potassium channel modulators” (AbbVie Inc., priority 2010, dated 2013).

Target: T1, KCNQ 2/3 channels (HEK293 cells stably expressing human KCNQ2 and KCNQ3 subunits) (Homo sapiens, UniProt O43525+O43526)
T1 construct: expressed in transfected cells; host or cells: HEK293
Assay: KCNQ2/3 channel activation, thallium flux FLIPR assay (BTC-AM dye)
Type: cell-based
Conditions: for Emax: HEK293, maximum response relative to response of retigabine at 10 μM (set at 100%), read-out: Max. %; for EC50: HEK293 cells expressing human KCNQ2 and KCNQ3, FLIPR thallium flux
Method: The following example describes the assay that can be used to identify compounds that activate KCNQ 2/3 channels.
HEK293 cells stably expressing human KCNQ2 and KCNQ3 subunits were seeded in 96-well, black-walled, clear-bottomed, poly-D-lysine coated plates (BD Biosciences, Bedford, Mass.) at a density of 1×10^5 cells per well 24 hours before the assay. On the assay day, BTC-AM dye (Invitrogen, Carlsbad, Calif.) was loaded into the cells by replacing the cell culture medium with 100 μL/well of 4 μM dye in DPBS. Dye loading was allowed to proceed for 2 hours at room temperature and then cells were washed twice in 100 μL/well of assay buffer (in mM: 10 HEPES pH 7.3, 5 glucose, 140 Na-gluconate, 2.5 K-gluconate, 3.6 Ca-gluconate, 2 MgSO4, 0.1 Ouabain) to remove unloaded dye. Cells were incubated in 50 μL of assay buffer before loading onto a FLIPR system (Molecular Devices, Sunnyvale, Calif.). Various concentrations of compounds to be assayed were added to the cells in 50 μL of assay buffer and incubated for 4 minutes. The fluorescence signal was initiated by adding 100 μL of assay buffer containing 6 mM TlNO3 and 10 mM K2SO4. Fluors were excited using the 488-nm line of an argon laser and emission was filtered using a 540±30 nm bandpass filter. Fluorescent signals were recorded for 3 minutes. Responses over baseline values were plotted versus concentrations of test compounds to obtain an EC50 value. The maximum response for each test compound was determined relative to the response produced at 10 μM by retigabine. The maximum response of retigabine at 10 μM was set at 100%.

Row | Emax | EC50 | Compound
1 | 96% | 1000 to 10000 nM | CC(C)(CC(=O)Nc1nn2cccnc2c1-c1cccc(F)c1)c1ccccc1 [Example 128, N-[3-(3-fluorophenyl)pyrazolo[1,5-a]pyrimidin-2-yl]-3-methyl-3-phenylbutanamide]
2 | 11% | > 10000 nM | COc1cc(CC(=O)Nc2nn3cccnc3c2-c2cccc(F)c2)cc(OC)c1 [Example 138, 2-(3,5-dimethoxyphenyl)-N-[3-(3-fluorophenyl)pyrazolo[1,5-a]pyrimidin-2-yl]acetamide]
3 | 173% | 100 to 500 nM | COc1cccc(CC(=O)Nc2nn3c(C)cc(C)nc3c2-c2ccc(F)c(C)c2)c1 [Example 32, N-[3-(4-fluoro-3-methylphenyl)-5,7-dimethylpyrazolo[1,5-a]pyrimidin-2-yl]-2-(3-methoxyphenyl)acetamide]
4 | 155% | < 100 nM | Cc1cc(C)n2nc(NC(=O)CCC3CCCC3)c(C(C)C)c2n1 [Example 122, 3-cyclopentyl-N-(3-isopropyl-5,7-dimethylpyrazolo[1,5-a]pyrimidin-2-yl)propanamide]
5 | 147% | 100 to 500 nM | CC(C)(C)c1c(NC(=O)Cc2cc(F)cc(F)c2)nn2cccnc12 [Example 127, N-(3-tert-butylpyrazolo[1,5-a]pyrimidin-2-yl)-2-(3,5-difluorophenyl)acetamide]
6 | 164% | 1000 to 10000 nM | Cc1cnc2c(-c3ccccc3)c(NC(=O)CC(C)(C)C)nn2c1 [Example 92, 3,3-dimethyl-N-(6-methyl-3-phenylpyrazolo[1,5-a]pyrimidin-2-yl)butanamide]
7 | 120% | < 100 nM | Cc1cnc2c(-c3ccc(C)c(F)c3)c(NC(=O)CCC3CCCC3)nn2c1 [Example 20, 3-cyclopentyl-N-[3-(3-fluoro-4-methylphenyl)-6-methylpyrazolo[1,5-a]pyrimidin-2-yl]propanamide]
8 | 67% | > 10000 nM | Cc1cnc2c(-c3ccc(F)c(C)c3)c(NC(=O)CS(=O)(=O)C3CCCC3)nn2c1 [Example 174, 2-(cyclopentylsulfonyl)-N-[3-(4-fluoro-3-methylphenyl)-6-methylpyrazolo[1,5-a]pyrimidin-2-yl]acetamide]
9 | 95% | > 10000 nM | Cc1cc(-c2c(NC(=O)Cc3ccc(F)cc3)nn3cccnc23)ccc1Cl [Example 45, N-[3-(4-chloro-3-methylphenyl)pyrazolo[1,5-a]pyrimidin-2-yl]-2-(4-fluorophenyl)acetamide]
10 | 97% | 1000 to 10000 nM | CC(C)(C)c1c(NC(=O)CC2(C)CCc3ccccc32)nn2cccnc12 (racemic) [Example 131, (±)-N-(3-tert-butylpyrazolo[1,5-a]pyrimidin-2-yl)-2-(1-methyl-2,3-dihydro-1H-inden-1-yl)acetamide]
11 | 267% | < 100 nM | Cc1cnc2c(CC(C)(C)C)c(NC(=O)CCC3CCCCC3)nn2c1 [Example 17, 3-cyclohexyl-N-[3-(2,2-dimethylpropyl)-6-methylpyrazolo[1,5-a]pyrimidin-2-yl]propanamide]
12 | 64% | > 10000 nM | CC(C)(CC(=O)Nc1nn2cccnc2c1-c1ccc(Cl)cc1)c1ccccc1 [Example 117, N-[3-(4-chlorophenyl)pyrazolo[1,5-a]pyrimidin-2-yl]-3-methyl-3-phenylbutanamide]
13 | 131% | 100 to 500 nM | CC(C)(C)c1c(NC(=O)CC2CCCCC2)nn2cccnc12 [Example 130, N-(3-tert-butylpyrazolo[1,5-a]pyrimidin-2-yl)-2-cyclohexylacetamide]
14 | 135% | 500 to 1000 nM | CC(C)c1c(NC(=O)CCC2CCCC2)nn2cccnc12 [Example 112, 3-cyclopentyl-N-(3-isopropylpyrazolo[1,5-a]pyrimidin-2-yl)propanamide]
15 | 23% | > 10000 nM | O=C(Cc1ccncc1)Nc1nn2cccnc2c1-c1ccc(Cl)cc1 [Example 102, N-[3-(4-chlorophenyl)pyrazolo[1,5-a]pyrimidin-2-yl]-2-(pyridin-4-yl)acetamide]
16 | 77% | 1000 to 10000 nM | Cc1ccc(-c2c(NC(=O)Cc3ccccc3)nn3cccnc23)cc1F [Example 19, N-[3-(3-fluoro-4-methylphenyl)pyrazolo[1,5-a]pyrimidin-2-yl]-2-phenylacetamide]

Row | Emax | EC50 | Compound
17 | 148% | < 100 nM | Cc1ccnc2c(-c3ccc(OC(F)(F)F)cc3)c(NC(=O)CC3CC4CCC3C4)nn12 (racemic) [Example 160, (±)-exo-2-bicyclo[2.2.1]hept-2-yl-N-{7-methyl-3-[4-(trifluoromethoxy)phenyl]pyrazolo[1,5-a]pyrimidin-2-yl}acetamide]
18 | 156% | 100 to 500 nM | Cc1cc(C)n2nc(NC(=O)CC3CCCCC3)c(-c3cccc(Cl)c3)c2n1 [Example 52, N-[3-(3-chlorophenyl)-5,7-dimethylpyrazolo[1,5-a]pyrimidin-2-yl]-2-cyclohexylacetamide]
19 | 119% | 100 to 500 nM | Cc1cc(C)n2nc(NC(=O)CCC3CC3)c(-c3ccc(Cl)c(C)c3)c2n1 [Example 114, N-[3-(4-chloro-3-methylphenyl)-5,7-dimethylpyrazolo[1,5-a]pyrimidin-2-yl]-3-cyclopropylpropanamide]
20 | 155% | 100 to 500 nM | Cc1cnc2c(C(C)(C)C)c(NC(=O)CC3CCCCC3)nn2c1 [Example 180, N-(3-tert-butyl-6-methylpyrazolo[1,5-a]pyrimidin-2-yl)-2-cyclohexylacetamide]
21 | 174% | 100 to 500 nM | CC(C)(C)/C=C/c1c(NC(=O)CC(C)(C)C)nn2cccnc12 [Example 144, N-{3-[(1E)-3,3-dimethylbut-1-en-1-yl]pyrazolo[1,5-a]pyrimidin-2-yl}-3,3-dimethylbutanamide]
22 | 40% | 1000 to 10000 nM | CC(C)(C)CC(=O)Nc1nn2cccnc2c1C#Cc1ccc(OC(F)(F)F)cc1 [Example 156, 3,3-dimethyl-N-(3-{[4-(trifluoromethoxy)phenyl]ethynyl}pyrazolo[1,5-a]pyrimidin-2-yl)butanamide]
23 | 52% | 1000 to 10000 nM | O=C(CCC1CCCC1)Nc1nn2cccnc2c1-c1cccnc1 [Example 119, 3-cyclopentyl-N-[3-(pyridin-3-yl)pyrazolo[1,5-a]pyrimidin-2-yl]propanamide]
24 | 83% | 100 to 500 nM | Cc1cnc2c(-c3ccc(F)c(C)c3)c(NC(=O)C(C)c3ccccc3)nn2c1 (racemic) [Example 176, (±)-N-[3-(4-fluoro-3-methylphenyl)-6-methylpyrazolo[1,5-a]pyrimidin-2-yl]-2-phenylpropanamide]
25 | 131% | 500 to 1000 nM | Cc1cc(C)n2nc(NC(=O)CCc3ccccc3)c(-c3cccc(F)c3)c2n1 [Example 85, N-[3-(3-fluorophenyl)-5,7-dimethylpyrazolo[1,5-a]pyrimidin-2-yl]-3-phenylpropanamide]
26 | 123% | 100 to 500 nM | Cc1cnc2c(-c3ccc(C(F)(F)F)cc3)c(NC(=O)CCc3ccccc3)nn2c1 [Example 59, N-{6-methyl-3-[4-(trifluoromethyl)phenyl]pyrazolo[1,5-a]pyrimidin-2-yl}-3-phenylpropanamide]
27 | 65% | 1000 to 10000 nM | CC(C)(C)CC(=O)Nc1nn2cccnc2c1/C=C/c1ccc(C(F)(F)F)cc1 [Example 147, 3,3-dimethyl-N-(3-{(E)-2-[4-(trifluoromethyl)phenyl]vinyl}pyrazolo[1,5-a]pyrimidin-2-yl)butanamide]
28 | 7% | > 10000 nM | CC(C)c1c(NC(=O)COC2CCCC2)nn2cccnc12 [Example 133, 2-(cyclopentyloxy)-N-(3-isopropylpyrazolo[1,5-a]pyrimidin-2-yl)acetamide]
29 | 174% | 1000 to 10000 nM | COc1ccc(CC(=O)Nc2nn3c(C)cc(C)nc3c2CC(C)(C)C)cc1 [Example 16, N-[3-(2,2-dimethylpropyl)-5,7-dimethylpyrazolo[1,5-a]pyrimidin-2-yl]-2-(4-methoxyphenyl)acetamide]
30 | 51% | 1000 to 10000 nM | CC(C)(C)OC(=O)Nc1nn2cccnc2c1/C=C/C1CCCCC1 [Example 177, tert-butyl {3-[(E)-2-cyclohexylvinyl]pyrazolo[1,5-a]pyrimidin-2-yl}carbamate]
31 | 141% | 1000 to 10000 nM | CC(C)(C)CC(=O)Nc1nn2cccnc2c1-c1cccc(OC(F)(F)F)c1 [Example 22, 3,3-dimethyl-N-{3-[3-(trifluoromethoxy)phenyl]pyrazolo[1,5-a]pyrimidin-2-yl}butanamide]
32 | 160% | 100 to 500 nM | CC(C)(C)c1c(NC(=O)CCc2ccccc2)nn2cccnc12 [Example 129, N-(3-tert-butylpyrazolo[1,5-a]pyrimidin-2-yl)-3-phenylpropanamide]
